Consider 19 compounds from ChEMBL document CHEMBL1126665, “o-Chlorobenzenesulfonamidic derivatives of (aryloxy)propanolamines as beta-blocking/diuretic agents” (J Med Chem, 1993).

Structures are written as SMILES. Values joined by “and” are separate entries in the source; they are usually repeats but may differ in a detail not shown here. Equal values may be shown once. Active and inactive are the calls of the source. No cut-off for these calls is given here.

In assay [1] the target is Beta-1 adrenergic receptor (Homo sapiens, UniProt P08588).
Assay [2] relates to Rattus norvegicus. Nature of the assay: Diuretic activity given as urinary output of 30 mg/kg perorally administered compound in rats. The note with it: route oral. The format is functional, Urine.
In assay [3] the test system is Rattus norvegicus. Nature of the assay: Saluretic activity was evaluated for K+ by flame photometry at 30 mg/kg perorally. The format is functional. The note with it: route oral.
A short description of assay [4]: Ratio of saluretic activity for Na+ over saluretic activity of K+ in rats after peroral administration of 15 mg/kg of compound. The note with it: route oral. The assay is classed as functional.
For assay [5], the system named is Rattus norvegicus. Briefly: Saluretic activity was evaluated for Na+ by flame photometry at 30 mg/kg perorally. The assay is classed as functional. The note with it: route oral.
The test system of assay [6] is Rattus norvegicus. Nature of the assay: Diuretic activity given as urinary output of 15 mg/kg perorally administered compound in rats. The note with it: route oral. The format is functional, Urine.
Assay [7] deals with Rattus norvegicus. Briefly: Saluretic activity was evaluated for K+ by flame photometry at 15 mg/kg perorally. To be noted: route oral. The format is functional.
Assay [8] is described as follows: Ratio of saluretic activity for Na+ over saluretic activity of K+ in rats after peroral administration of 30 mg/kg of compound. The assay is classed as functional. The note with it: route oral.
Assay [9] relates to Rattus norvegicus. Briefly: Diuretic activity given as urinary output of 8 mg/kg perorally administered compound in rats. The format is functional, Urine. To be noted: route oral.
Assay [10] concerns Rattus norvegicus. Briefly: Saluretic activity was evaluated for Na+ by flame photometry at 15 mg/kg perorally. The format is functional. The note with it: route oral.
The nature of assay [11]: Ratio of saluretic activity for Na+ over saluretic activity of K+ in rats after peroral administration of 8 mg/kg of compound. The assay is classed as functional. To be noted: route oral.
For assay [12], the system named is Rattus norvegicus. Briefly: Saluretic activity was evaluated for Na+ by flame photometry at 8 mg/kg perorally. To be noted: route oral. The assay is classed as functional.
Assay [13] concerns Rattus norvegicus. Briefly: Saluretic activity was evaluated for K+ by flame photometry at 8 mg/kg perorally. The format is functional. The note with it: route oral.
Assay [14] has as its target T1, Adrenergic receptor beta (Rattus norvegicus) (UniProt P18090+P10608+P26255).
Description: beta-adrenoceptor blocking activity of the intravenously administered compound was evaluated by inhibition of isiprenaline-induced tachycardia in rats; NA indicates not active
Assay [15] concerns Rattus norvegicus. Nature of the assay: Saluretic activity was evaluated for K+ by flame photometry at 50 mg/kg perorally. The assay is classed as functional. To be noted: route oral.
Assay [16] concerns Rattus norvegicus. Briefly: Saluretic activity was evaluated for Na+ by flame photometry at 50 mg/kg perorally. The format is functional. To be noted: route oral.
The subject of assay [17] is Rattus norvegicus. Nature of the assay: Diuretic activity given as urinary output of 50 mg/kg perorally administered compound in rats. The assay is classed as functional, Urine. The note with it: route oral.
The test system of assay [18] is Rattus norvegicus. Nature of the assay: Diuretic activity given as urinary output at 15 mg/kg perorally. The assay is classed as functional, Urine. To be noted: route oral.
The nature of assay [19]: Ratio of saluretic activity for Na+ over saluretic activity of K+ in rats after peroral administration of 50 mg/kg of compound. The assay is classed as functional. To be noted: route oral.
Assay [20] concerns the target Beta-1 adrenergic receptor (Meleagris gallopavo) (UniProt P07700). Briefly: Inhibition of [3H]dihydroalprenolol binding ([3H]-DHA) to beta-1-adrenoceptor from turkey erythrocyte membranes; Not active.
The target in assay [21] is T1, Adrenergic receptor beta (Rattus norvegicus). This is another data set of the same source.
Description: beta-adrenoceptor blocking activity of the perorally administered compound was evaluated by inhibition of isiprenaline-induced tachycardia in rats; NA indicates not active

Beta-1 adrenergic receptor, sequence (P08588 whole entry): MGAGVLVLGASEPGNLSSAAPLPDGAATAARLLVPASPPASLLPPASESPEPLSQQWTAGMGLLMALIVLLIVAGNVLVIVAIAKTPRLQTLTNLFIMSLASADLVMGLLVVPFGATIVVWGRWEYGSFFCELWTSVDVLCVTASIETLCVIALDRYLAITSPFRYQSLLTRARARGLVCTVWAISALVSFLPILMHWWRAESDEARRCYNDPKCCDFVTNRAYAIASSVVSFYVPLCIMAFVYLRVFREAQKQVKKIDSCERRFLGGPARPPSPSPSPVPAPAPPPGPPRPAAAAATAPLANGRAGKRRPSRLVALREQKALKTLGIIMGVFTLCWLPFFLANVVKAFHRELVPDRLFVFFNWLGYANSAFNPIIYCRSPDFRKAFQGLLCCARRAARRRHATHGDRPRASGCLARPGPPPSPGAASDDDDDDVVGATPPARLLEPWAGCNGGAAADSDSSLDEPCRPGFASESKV
Beta-1 adrenergic receptor (Meleagris gallopavo), sequence (P07700 whole entry, looked up): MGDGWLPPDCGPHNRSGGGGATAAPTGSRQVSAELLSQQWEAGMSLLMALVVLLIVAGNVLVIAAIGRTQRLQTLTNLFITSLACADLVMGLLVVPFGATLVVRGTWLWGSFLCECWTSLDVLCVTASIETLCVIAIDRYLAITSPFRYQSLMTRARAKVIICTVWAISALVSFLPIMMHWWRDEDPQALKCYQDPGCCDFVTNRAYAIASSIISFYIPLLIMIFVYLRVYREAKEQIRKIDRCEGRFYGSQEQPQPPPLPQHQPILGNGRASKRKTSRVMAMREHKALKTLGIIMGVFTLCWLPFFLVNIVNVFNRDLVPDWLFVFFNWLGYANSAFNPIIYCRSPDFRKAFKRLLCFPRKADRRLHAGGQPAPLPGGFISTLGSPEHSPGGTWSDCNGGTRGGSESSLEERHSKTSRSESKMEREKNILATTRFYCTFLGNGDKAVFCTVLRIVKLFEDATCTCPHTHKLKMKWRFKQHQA

Consider `NS(=O)(=O)c1cc(S(=O)(=O)N2CCN(CC(O)COc3cccc4c3SCC(=O)N4)CC2)ccc1Cl` (stereo not given), for which the Ki result in assay [1] was “Not Active”.
On to `NS(=O)(=O)c1cc(S(=O)(=O)NCCNCC(O)COc2cccc3c2SCC(=O)N3)ccc1Cl` (stereo not given), for which the Urinary output with Rattus norvegicus [2] turned out to be 5.7 mL; in the assay with Rattus norvegicus [6] it was 3.7 mL; in the assay on Rattus norvegicus [9] it was 3.5 mL. In addition, the Activity stood at 2.4 m equiv kg-1 with Rattus norvegicus [3]; 4.5 m equiv kg-1 with Rattus norvegicus [5]; 1.3 m equiv kg-1 in the assay on Rattus norvegicus [7]; 3 m equiv kg-1 in the assay on Rattus norvegicus [10]; 3.2 m equiv kg-1 in the assay with Rattus norvegicus [12]; 1.3 m equiv kg-1 in the assay with Rattus norvegicus [13]. For the same compound, the Ratio in [4] was determined as 2.3; in assay [8], 1.9; in assay [11], 2.5.
On to `NS(=O)(=O)c1cc(N2CCN(CC(O)COc3cccc4c3SCC(=O)N4)CC2)ccc1Cl` (stereo not given), for which the results for the Urinary output in the assay on Rattus norvegicus [2], in the assay with Rattus norvegicus [6] and with Rattus norvegicus [9] were 3.5 mL, 3.1 mL and 2.6 mL, respectively. For the same compound, the Activity in the assay with Rattus norvegicus [3] is recorded as 2 m equiv kg-1; in the assay on Rattus norvegicus [5], 3 m equiv kg-1; in the assay with Rattus norvegicus [7], 1.8 m equiv kg-1; in the assay with Rattus norvegicus [10], 2.9 m equiv kg-1; in the assay on Rattus norvegicus [12], 2.2 m equiv kg-1; in the assay on Rattus norvegicus [13] it was 1.7 m equiv kg-1. Besides, the Ratio was determined as 1.6 in assay [4], 1.5 in assay [8] and 1.3 in [11]. Besides, in [14], the ED50 entry was “inactive”.
Regarding `NS(=O)(=O)c1cc(C(=O)NCCNCC(O)COc2cccc3c2CCC(=O)N3)ccc1Cl` (stereo not given), the Urinary output was 3.3 mL with Rattus norvegicus [2], 2.6 mL with Rattus norvegicus [6] and 2.8 mL with Rattus norvegicus [9]. The Activity in the assay on Rattus norvegicus [3] was 1.8 m equiv kg-1; in the assay with Rattus norvegicus [5] it was 2.9 m equiv kg-1; in the assay with Rattus norvegicus [7] it was 1.5 m equiv kg-1; with Rattus norvegicus [10], 2 m equiv kg-1; in the assay with Rattus norvegicus [12], 2.6 m equiv kg-1; in the assay on Rattus norvegicus [13], 1.8 m equiv kg-1. The Ratio was 1.3 in assay [4], 1.6 in assay [8] and 1.4 in assay [11].
For the compound `NS(=O)(=O)c1cc(C(=O)N2CCN(CC(O)COc3cccc4c3CCC(=O)N4)CC2)ccc1Cl` (stereo not given), the Ki result in assay [1] is “Not Active”.
On the same count and under the same terms, to `NS(=O)(=O)c1cc(N2CCN(CC(O)COc3cccc4c3CCC(=O)N4)CC2)ccc1Cl` (stereo not given) belongs “Not Active”.
`NS(=O)(=O)c1cc(NCCNCC(O)COc2cccc3ccccc23)ccc1Cl` (stereo not given): the Urinary output in the assay on Rattus norvegicus [2] amounted to 3.5 mL; in the assay with Rattus norvegicus [6], 3.2 mL; in the assay on Rattus norvegicus [9], 2.4 mL. For the same compound, the Activity in the assay on Rattus norvegicus [3] was determined as 2.6 m equiv kg-1; with Rattus norvegicus [5] it was 3.2 m equiv kg-1; in the assay with Rattus norvegicus [7] it was 2 m equiv kg-1; in the assay with Rattus norvegicus [10], 3.1 m equiv kg-1; in the assay with Rattus norvegicus [12], 2.8 m equiv kg-1; in the assay on Rattus norvegicus [13], 1.6 m equiv kg-1. Further, the Ratio in [4] came out at 1.5; in assay [8], 1.2; in assay [11] it was 1.7. The ED50 entry in assay [14] is “inactive”.
In the case of `NS(=O)(=O)c1cc(N2CCN(CC(O)COc3cccc4ccccc34)CC2)ccc1Cl` (stereo not given), the Urinary output in the assay on Rattus norvegicus [2] is 2.9 mL; in the assay on Rattus norvegicus [6], 2.2 mL; in the assay on Rattus norvegicus [9], 1.9 mL. In addition, the Activity in the assay with Rattus norvegicus [3] was found to be 2 m equiv kg-1; with Rattus norvegicus [5] it was 3.2 m equiv kg-1; in the assay with Rattus norvegicus [7] it was 1.4 m equiv kg-1; in the assay on Rattus norvegicus [10], 1.7 m equiv kg-1; in the assay on Rattus norvegicus [12] it was 2.4 m equiv kg-1; in the assay on Rattus norvegicus [13], 1.3 m equiv kg-1. The figures for the Ratio in assay [4], in assay [8] and in assay [11] were 1.2, 1.4 and 1.8, respectively.
Turning to `NS(=O)(=O)c1cc(C(=O)NCCNCC(O)COc2cccc3c2SCC(=O)N3)ccc1Cl` (stereo not given), the Urinary output with Rattus norvegicus [2] was 2 mL; with Rattus norvegicus [9], 1.2 mL; with Rattus norvegicus [17], 4.3 mL; in the assay with Rattus norvegicus [18] it was 1.7 mL. In addition, the Activity in the assay with Rattus norvegicus [3] is given as 1.1 m equiv kg-1; with Rattus norvegicus [5], 1.7 m equiv kg-1; in the assay on Rattus norvegicus [7], 0.9 m equiv kg-1; in the assay on Rattus norvegicus [15] it was 1.5 m equiv kg-1; in the assay on Rattus norvegicus [16], 3.1 m equiv kg-1; in the assay with Rattus norvegicus [10], 1.1 m equiv kg-1. Besides, the values for the Activity in the assay on Rattus norvegicus [12] and in the assay with Rattus norvegicus [13] were 0.9 m equiv kg-1 and 0.8 m equiv kg-1, respectively. Also, the Ratio in assay [4] turned out to be 1.2; in assay [8], 1.5; in assay [11] it was 1.1; in assay [19], 2.1.
Turning to `NS(=O)(=O)c1cc(NCCNCC(O)COc2cccc3c2SCC(=O)N3)ccc1Cl` (stereo not given), the Urinary output with Rattus norvegicus [2] turned out to be 3.1 mL; in the assay on Rattus norvegicus [6], 3.3 mL; in the assay with Rattus norvegicus [9], 2.6 mL. Besides, the Activity with Rattus norvegicus [3] was found to be 1.2 m equiv kg-1; with Rattus norvegicus [5], 2.2 m equiv kg-1; in the assay on Rattus norvegicus [7], 1.3 m equiv kg-1; in the assay on Rattus norvegicus [10], 2.6 m equiv kg-1; with Rattus norvegicus [12] it was 2.1 m equiv kg-1; in the assay with Rattus norvegicus [13] it was 1.1 m equiv kg-1. For the same compound, the Ratio was found to be 2 in assay [4], 1.8 in assay [8] and 1.9 in assay [11].
As to `NS(=O)(=O)c1cc(S(=O)(=O)NCCNCC(O)COc2cccc3c2CCC(=O)N3)ccc1Cl` (stereo not given), the Activity in the assay with Rattus norvegicus [3] worked out at 1.5 m equiv kg-1; in the assay on Rattus norvegicus [5] it was 3.4 m equiv kg-1; in the assay with Rattus norvegicus [7], 1.2 m equiv kg-1; in the assay on Rattus norvegicus [10], 2.3 m equiv kg-1; with Rattus norvegicus [12] it was 1.8 m equiv kg-1; in the assay on Rattus norvegicus [13], 0.9 m equiv kg-1. The values for the Ratio in [4], in assay [8] and in assay [11] were 1.9, 2.3 and 2, respectively. The Urinary output in the assay with Rattus norvegicus [6] (15 mg/kg) is 3.1 mL and 4.6 mL; in the assay with Rattus norvegicus [9] it was 2.2 mL.
Consider `NS(=O)(=O)c1cc(C(=O)N2CCN(CC(O)COc3cccc4c3SCC(=O)N4)CC2)ccc1Cl` (stereo not given), for which, in assay [1], the Ki entry is reported as “Not Active”.
With `NS(=O)(=O)c1cc(S(=O)(=O)N2CCN(CC(O)COc3cccc4ccccc34)CC2)ccc1Cl` (stereo not given), the Ki result in [1] is on record as “Not Active”.
Consider `NS(=O)(=O)c1cc(C(=O)N2CCN(CC(O)COc3cccc4ccccc34)CC2)ccc1Cl` (stereo not given), for which, in assay [20], the Ki result was “Not Active”.
With `NS(=O)(=O)c1cc2c(cc1Cl)NCNS2(=O)=O` [HYDROCHLOROTHIAZIDE], the Urinary output with Rattus norvegicus [2] is 7.3 mL; in the assay on Rattus norvegicus [6], 5.9 mL; in the assay on Rattus norvegicus [9] it was 4 mL. The Activity came to 2.3 m equiv kg-1 in the assay with Rattus norvegicus [3]; 5.1 m equiv kg-1 with Rattus norvegicus [5]; 1.9 m equiv kg-1 in the assay with Rattus norvegicus [7]; 3.9 m equiv kg-1 in the assay on Rattus norvegicus [10]; 3.1 m equiv kg-1 in the assay on Rattus norvegicus [12]; 1.8 m equiv kg-1 in the assay with Rattus norvegicus [13]. In addition, the Ratio in assay [4] came out at 2; in assay [8], 2.2; in [11], 1.7.
`NS(=O)(=O)c1cc(S(=O)(=O)NCCNCC(O)COc2cccc3ccccc23)ccc1Cl` (stereo not given): the ED50 result in [21] and in assay [14] was “inactive” throughout.
Consider `NS(=O)(=O)c1cc(NCCNCC(O)COc2cccc3c2CCC(=O)N3)ccc1Cl` (stereo not given), for which the Ki entry in assay [1] was “Not Active”.
On the same count and under the same terms, as for `NS(=O)(=O)c1cc(S(=O)(=O)N2CCN(CC(O)COc3cccc4c3CCC(=O)N4)CC2)ccc1Cl` (stereo not given), the entry is “Not Active”.
As for `NS(=O)(=O)c1cc(C(=O)NCCNCC(O)COc2cccc3ccccc23)ccc1Cl` (stereo not given), the Urinary output in the assay on Rattus norvegicus [2] turned out to be 2.9 mL; with Rattus norvegicus [6], 4.8 mL; with Rattus norvegicus [9] it was 5.2 mL. Besides, the Activity was 1.4 m equiv kg-1 in the assay on Rattus norvegicus [3]; 1.8 m equiv kg-1 with Rattus norvegicus [5]; 1.7 m equiv kg-1 in the assay with Rattus norvegicus [7]; 3.1 m equiv kg-1 in the assay on Rattus norvegicus [10]; 2.5 m equiv kg-1 in the assay with Rattus norvegicus [12]; 1.2 m equiv kg-1 in the assay on Rattus norvegicus [13]. For the same compound, the Ratio was 1.8 in assay [4], 1.2 in assay [8] and 2.1 in assay [11].
